One experiment has as its system HCT116 p53+/+. The experiment in a line: Quantification of cellular ATP levels (CellTiterGlo). In kind it is cell-based, human. The note with it: for ATP levels relative to vehicle control: 20h; for % ATP Activity (Average): HCT116 p53+/+ cells, average of runs, relative to 0 µM = 100. The protocol:
(§1) ARPE-19 and HCT116 p53^+/+ cells were seeded in 96-well opaque plates at a density of 7500 cells/well. 24 h after seeding, cells were treated for 20 h with a range of concentrations of [[…]]^6+, [L2Zn3]^6+, [[…]]^6+, or vehicle control (2-fold serial dilution from 100-3.125 μM) before determining total cellular ATP content by quantification of luminescence (CellTiterGlo® assay, Promega). ATP levels were normalised relative to levels in vehicle control-treated cells.
(In general: In ATP-based viability assays light output follows the ATP content of the culture.)

The test system of the next experiment is ARPE-19. Described as above. The class given is cell-based, human. The note with it: for % ATP Activity (Average): ARPE-19 cells, average of runs, relative to 0 µM = 100; for ATP levels relative to vehicle control: ARPE19, 100μM, 20h. The procedure: as §1
For experiment [1], the target named is T1, recombinant human AMPK (α1β2γ1) (Homo sapiens, UniProt Q13131).
T1 construct: purchased Promega
T1 sequence (Q13131 whole entry): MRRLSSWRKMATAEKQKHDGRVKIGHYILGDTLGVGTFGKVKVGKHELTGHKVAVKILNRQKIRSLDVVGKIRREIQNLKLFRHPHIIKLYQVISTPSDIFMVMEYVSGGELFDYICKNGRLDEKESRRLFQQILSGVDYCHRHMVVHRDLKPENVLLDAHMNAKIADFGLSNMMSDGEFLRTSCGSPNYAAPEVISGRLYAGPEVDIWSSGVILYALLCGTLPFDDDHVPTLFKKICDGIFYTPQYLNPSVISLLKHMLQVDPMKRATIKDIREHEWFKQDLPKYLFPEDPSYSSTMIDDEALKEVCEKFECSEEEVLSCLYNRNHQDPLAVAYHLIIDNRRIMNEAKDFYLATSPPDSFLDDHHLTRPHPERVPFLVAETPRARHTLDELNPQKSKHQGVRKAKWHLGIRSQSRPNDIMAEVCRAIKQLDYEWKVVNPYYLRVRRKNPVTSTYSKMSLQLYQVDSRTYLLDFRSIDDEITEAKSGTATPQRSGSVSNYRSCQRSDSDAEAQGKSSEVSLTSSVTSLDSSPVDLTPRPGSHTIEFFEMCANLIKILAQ
T1 sequence (O43741 whole entry partner): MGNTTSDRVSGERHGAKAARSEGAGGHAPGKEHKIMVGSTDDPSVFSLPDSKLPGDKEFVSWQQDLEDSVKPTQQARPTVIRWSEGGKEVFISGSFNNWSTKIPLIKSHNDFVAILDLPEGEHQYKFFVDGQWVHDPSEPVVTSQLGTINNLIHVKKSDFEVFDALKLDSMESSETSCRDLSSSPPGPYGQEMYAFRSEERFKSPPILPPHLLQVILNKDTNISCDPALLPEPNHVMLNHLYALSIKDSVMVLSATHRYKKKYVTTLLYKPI
T1 sequence (P54619 whole entry partner): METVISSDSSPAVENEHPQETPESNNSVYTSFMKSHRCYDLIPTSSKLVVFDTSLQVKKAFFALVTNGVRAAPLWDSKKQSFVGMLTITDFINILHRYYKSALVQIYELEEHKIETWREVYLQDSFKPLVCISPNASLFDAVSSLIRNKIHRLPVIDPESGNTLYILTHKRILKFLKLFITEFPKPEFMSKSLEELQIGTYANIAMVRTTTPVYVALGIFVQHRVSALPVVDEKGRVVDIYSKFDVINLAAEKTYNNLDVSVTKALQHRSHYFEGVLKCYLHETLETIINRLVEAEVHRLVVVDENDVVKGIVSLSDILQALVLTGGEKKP
The experiment is described as follows: Substrate competition assay (ADP-Glo Kinase Assay). In kind it is biochemical. Background: In ADP-Glo the light output rises with the ADP produced.

The target of experiment [2] is T1, recombinant human AMPK (α1β2γ1). The experiment is described as follows: ATP competition kinase assay. In kind it is biochemical. The procedure:
ATP competition kinase assays were performed by the MRC Protein Phosphorylation and Ubiquitination Unit International Centre for Kinase Profiling (University of Dundee). Inhibition of recombinant human AMPK (α1β2γ1) by 10μM [L2Cu3]^6+ or [L2Zn3]^6+ was evaluated at five different ATP concentrations (0.5, 2, 20, 200 and 500 µM ATP). Substrate competition assays were performed using the ADP-Glo Kinase Assay (Promega) and recombinant human AMPK (α1β2γ1) (Promega) with concentrations of the provided AMPK substrate (SAMStide substrate, Promega) ranging from 1 to 15 mg/ml. Following pre-incubation of substrate with kinase for 5 min 10 µM [L2Cu3]^6+, [L2Zn3]^6+ or solvent control and 50 µM ATP was added to start the kinase reaction. For determination of the effects of AMP on AMPK inhibition by [L2Zn3]^6+, the ADP-Glo Kinase Assay (Promega) was performed in presence of varying of AMP (0, 80, 160 μM).

The nature of experiment [3]: UV-Vis study of hydrolysis of 4-nitrophenyl phosphate. The note with it: HEPES pH 7.4 / DMSO, blank 0.0129. The procedure:
UV–Vis studies were carried out on a Cary 60 UV–Vis spectrophotometer with Thermo cycler attachment and the wavelength range of 800–250 nm was scanned every hour for 43 h whilst the solution was heated at a constant temperature of 37 °C. Progress of hydrolysation of 4-nitrophenyl phosphate to 4-nitrophenol was measured by monitoring the increase in absorption at the wavelength of 400 nm (typical for 4-nitrophenol). HEPES buffer was prepared at pH 7.4. Solutions were prepared by dissolving the ligand L (3.1 mg, 0.005 mmol) and the relevant metal salt (1.5 equivalents with respect to ligand) in DMSO (5 mL). 4-nitrophenyl phosphate (18.6 mg, 0.050 mmol) was dissolved in HEPES buffer (~10 mL, 60 mmol). These solutions were then combined and made up volumetrically to 50 mL with HEPES buffer. Where required Bu4NH2PO4 (0.5 equivalents with respect to ligand) was added to the HEPES buffer.
5. UV-Vis studies of the hydrolysis of disodium 4-nitrophenylphosphate.
UV-Vis studies were carried out on a Cary 60 UV-Vis spectrophotometer with Thermo cycler attachment and the wavelength range of 800 – 250 nm was scanned every hour for 43 hours whilst the solution was heated at a constant temperature of 37 °C. Progress of hydrolysation of 4-nitrophenyl phosphate to 4-nitrophenol was measured by monitoring the increase in absorption at the wavelength of 400 nm (typical for 4-nitrophenol). HEPES buffer was prepared at pH 7.4.
Solutions were prepared by dissolving the ligand L (3.1 mg, 0.005 mmol) and the relevant metal salt (1.5 equiv w.r.t. ligand) in DMSO (5 mL). 4 -nitrophenyl phosphate (18.6 mg, 0.050 mmol) was dissolved in HEPES buffer (~10 mL , 60 mmol) These solutions were then combined and made up volumetrically to 50 mL with HEPES buffer.
(1.5 equiv w.r.t. ligand) in DMSO (5 mL). Tetrabutylammonium phosphate (0.84 mg, 0.0025 mmol) was dissolved in HEPES buffer (~1 mL, 60 mmol) and these solutions were combined. […]

Values joined by “and” are separate entries in the source; they are usually repeats but may differ in a detail not shown here. Equal values may be shown once. Some results are limits rather than exact numbers.

For the molecule `[Cu+2].[Cu+2].[Cu+2].c1ccc(-c2csc(NCCN(CCNc3nc(-c4ccccn4)cs3)CCNc3nc(-c4ccccn4)cs3)n2)nc1.c1ccc(-c2csc(NCCN(CCNc3nc(-c4ccccn4)cs3)CCNc3nc(-c4ccccn4)cs3)n2)nc1` [[L2Cu3]6+], the “ATP levels relative to vehicle control” value in the experiment with HCT116 p53+/+ (HCT116, highest concentration of 100μM) is on record as < 50%. The “% ATP Activity (Average)” value in the experiment on HCT116 p53+/+ (3.125 µM complex) is listed as 75.66%; in the experiment with HCT116 p53+/+ (6.25 µM complex), 75.32%; with HCT116 p53+/+ (12.5 µM complex) it was 74.21%; in the experiment on HCT116 p53+/+ (25 µM complex), 71.91%; in the experiment with HCT116 p53+/+ (50 µM complex), 61.46%; in the experiment on HCT116 p53+/+ (100 µM complex), 38.46%. For the same molecule, the “% ATP Activity (Average)” value in the experiment on ARPE-19 (3.125 µM complex) came to 91.48%; in the experiment with ARPE-19 (6.25 µM complex), 92.26%; in the experiment on ARPE-19 (12.5 µM complex), 92.93%; with ARPE-19 (25 µM complex) it was 95.14%; in the experiment on ARPE-19 (50 µM complex), 85.50%; in the experiment with ARPE-19 (100 µM complex) it was 56.08%. For the same molecule, the “%AMPK Activity Remaining, Mean (data for the bars)” value worked out at 34.60% in experiment [1] (Substrate 0.5 mg/ml as printed), 17.00% in experiment [1] (Substrate 20 mg/ml as printed), 25.40% in experiment [1] (Substrate 200 mg/ml as printed) and 17.20% in experiment [1] (Substrate 500 mg/ml as printed). In addition, the “% Activity remaining compared to 100% DMSO controls, individual replicates” value in experiment [2] (ATP conc 0.5 µM) was 12.56% and 14.65% and 16.05%; in experiment [2] (ATP conc 2 µM), 15.11% and 18.68% and 17.31%; in experiment [2] (ATP conc 20 µM), 12.85% and 11.15% and 12.56%; in experiment [2] (ATP conc 200 µM), 10.11% and 10.01% and 10.69%; in experiment [2] (ATP conc 500 µM), 20.03% and 18.99% and 20.22%. The “Mean Activity (%) remaining compared to 100% DMSO controls” value in experiment [2] (ATP conc 0.5 µM) stood at 14.42%; in experiment [2] (ATP conc 2 µM), 17.03%; in experiment [2] (ATP conc 20 µM), 12.19%; in experiment [2] (ATP conc 200 µM) it was 10.27%; in experiment [2] (ATP conc 500 µM), 19.74%.

Turning to `[Mn+2].[Mn+2].[Mn+2].c1ccc(-c2csc(NCCN(CCNc3nc(-c4ccccn4)cs3)CCNc3nc(-c4ccccn4)cs3)n2)nc1.c1ccc(-c2csc(NCCN(CCNc3nc(-c4ccccn4)cs3)CCNc3nc(-c4ccccn4)cs3)n2)nc1` [[L2Mn3]6+], the “% ATP Activity (Average)” value in the experiment with HCT116 p53+/+ (3.125 µM complex) was 52.15%; in the experiment on HCT116 p53+/+ (6.25 µM complex), 40.82%; in the experiment with HCT116 p53+/+ (12.5 µM complex), 38.17%; in the experiment on HCT116 p53+/+ (25 µM complex), 35.09%; in the experiment with HCT116 p53+/+ (50 µM complex), 31.21%; in the experiment on HCT116 p53+/+ (100 µM complex) it was 28.58%. Also, the “% ATP Activity (Average)” value was 82.98% in the experiment with ARPE-19 (3.125 µM complex); 75.81% in the experiment on ARPE-19 (6.25 µM complex); 71.57% in the experiment on ARPE-19 (12.5 µM complex); 63.68% with ARPE-19 (25 µM complex); 53.48% in the experiment with ARPE-19 (50 µM complex); 40.46% in the experiment on ARPE-19 (100 µM complex). Besides, the “ATP levels relative to vehicle control” value with HCT116 p53+/+ (HCT116 p53+/+, 6.25μM) was < 50%; in the experiment on ARPE-19 it was ~ 40%. In addition, in experiment [3], the “Concentration of 4-nitrophenol after 24 hours at 37°C” value (from here on “Concentration of 4-nitrophenol”) is 0.1185 mM.

Take `CC(=O)[O-].CC(=O)[O-].CC(=O)[O-].O=P([O-])([O-])[O-].[Zn+2].[Zn+2].[Zn+2].c1ccc(-c2csc(NCCN(CCNc3nc(-c4ccccn4)cs3)CCNc3nc(-c4ccccn4)cs3)n2)nc1.c1ccc(-c2csc(NCCN(CCNc3nc(-c4ccccn4)cs3)CCNc3nc(-c4ccccn4)cs3)n2)nc1` [[L2Zn3(PO4)]3+]: the “Concentration of 4-nitrophenol” value in experiment [3] was 0.0164 mM.

`CC(=O)[O-].CC(=O)[O-].CC(=O)[O-].CC(=O)[O-].CC(=O)[O-].CC(=O)[O-].[Zn+2].[Zn+2].[Zn+2].c1ccc(-c2csc(NCCN(CCNc3nc(-c4ccccn4)cs3)CCNc3nc(-c4ccccn4)cs3)n2)nc1.c1ccc(-c2csc(NCCN(CCNc3nc(-c4ccccn4)cs3)CCNc3nc(-c4ccccn4)cs3)n2)nc1` [[L2Zn3]6+]: the “% ATP Activity (Average)” value in the experiment with HCT116 p53+/+ (3.125 µM complex) is given as 71.75%; in the experiment with HCT116 p53+/+ (6.25 µM complex) it was 63.36%; in the experiment on HCT116 p53+/+ (12.5 µM complex), 54.43%; in the experiment on HCT116 p53+/+ (25 µM complex), 46.16%; in the experiment with HCT116 p53+/+ (50 µM complex), 35.67%; with HCT116 p53+/+ (100 µM complex), 26.26%. Moreover, the “% ATP Activity (Average)” value with ARPE-19 (3.125 µM complex) is on record as 91.98%; in the experiment with ARPE-19 (6.25 µM complex), 88.71%; in the experiment with ARPE-19 (12.5 µM complex), 84.92%; with ARPE-19 (25 µM complex), 79.86%; with ARPE-19 (50 µM complex), 79.43%; in the experiment on ARPE-19 (100 µM complex), 73.40%. The “ATP levels relative to vehicle control” value with HCT116 p53+/+ (HCT116 p53+/+, concentrations of ≥25μM) is reported as < 50%; in the experiment on ARPE-19 it was > 70%. Besides, the “%AMPK Activity Remaining, Mean (data for the bars)” value in experiment [1] (Substrate 0.5 mg/ml as printed) is 42.90%; in experiment [1] (Substrate 20 mg/ml as printed), 39.40%; in experiment [1] (Substrate 200 mg/ml as printed), 43.70%; in experiment [1] (Substrate 500 mg/ml as printed) it was 35.80%. For the same molecule, in experiment [3], the “Concentration of 4-nitrophenol” value amounted to 0.0361 mM. The “% Activity remaining compared to 100% DMSO controls, individual replicates” value in experiment [2] (ATP conc 0.5 µM) is 17.76% and 11.76% and 14.76%; in experiment [2] (ATP conc 2 µM) it was 15.06% and 12.57% and 9.46%; in experiment [2] (ATP conc 20 µM), 16.58% and 14.33% and 12.68%; in experiment [2] (ATP conc 200 µM) it was 16.91% and 18.22% and 15.98%; in experiment [2] (ATP conc 500 µM) it was 15.73% and 11.81% and 15.83%. Besides, the “Mean Activity (%) remaining compared to 100% DMSO controls” value in experiment [2] (ATP conc 0.5 µM) was determined as 14.76%; in experiment [2] (ATP conc 2 µM), 12.36%; in experiment [2] (ATP conc 20 µM), 14.53%; in experiment [2] (ATP conc 200 µM), 17.04%; in experiment [2] (ATP conc 500 µM), 14.46%.

Values taken from publication PMC8222254, “Self-assembly of an anion receptor with metal-dependent kinase inhibition and potent in vitro anti-cancer properties” (Nature Communications, 2021).
